According to DBAASP:
In brackets after ≈: the same amount, converted by molar mass. Each block holds one molecule with its values, some of them ahead of it.

Columns and labels:
Test in all cases: ≥ marks a high value that may be exact or a test limit, other limits are often not marked, values filed in µg/mL are converted to µM
[1] = system: Staphylococcus aureus ATCC 25923
[2] = system: Escherichia coli UB1005
[3] = system: Salmonella enterica subsp. enterica serovar Typhimurium ATCC 14028s
[4] = system: Candida albicans
[5] = system: Escherichia coli KF130
[6] = system: Staphylococcus epidermidis
[7] = system: Staphylococcus aureus SAP 0017
[8] = system: Pseudomonas aeruginosa PAO1
[9] = system: Staphylococcus aureus R147
[10] = system: Pseudomonas aeruginosa H744
[11] = system: Pseudomonas aeruginosa H374
[12] = system: Enterococcus faecalis ATCC 29212
[13] = system: Escherichia coli DC2
[14] = system: Candida tropicalis IOC 45608
[15] = system: Candida krusei IOC 4559
[16] = system: Aspergillus niger
[17] = system: Candida albicans IOC 4558
[18] = system: Candida albicans MDM8
[19] = system: Candida parapsilosis IOC 456416
[20] = system: Candida glabrata IOC 4565
[21] = system: Escherichia coli KCTC 1682
[22] = system: Bacillus megaterium KCTC 1096
[23] = system: Proteus vulgaris
[24] = system: Bacillus subtilis KCTC 1918
[25] = system: Pseudomonas aeruginosa KCTC 1637
[26] = system: Staphylococcus aureus KCTC 1621
[27] = system: Serratia marcescens ATCC 8100
[28] = system: Escherichia coli JW0013
[29] = system: Salmonella typhimurium SL1344
[30] = system: Klebsiella pneumoniae ATCC 700603
[31] = system: Pseudomonas aeruginosa
[32] = system: Escherichia coli JJ2489
[33] = system: Staphylococcus epidermidis ATCC 12228
[34] = system: Acinetobacter baumannii ATCC 19606
[35] = system: Escherichia coli
[36] = system: Escherichia coli ML-35
[37] = system: Escherichia coli J2210
[38] = system: Salmonella enterica subsp. enterica serovar Typhimurium ATCC 14028
[39] = system: Escherichia coli ATCC 25922
[40] = system: Klebsiella pneumoniae
[41] = system: Bacillus subtilis DSM 4181
[42] = system: Escherichia coli JW0368 ΔsbmA
[43] = system: Salmonella enterica serovar Typhimurium
[44] = system: Acinetobacter baumannii
[45] = system: Burkholderia cepacia
[46] = system: Salmonella enterica subsp. enterica serovar Enteritidis MH91989
[47] = system: Escherichia coli BW25113
[48] = system: Stenotrophomonas maltophilia ATCC 13637
[49] = system: Escherichia coli MC1041
[50] = system: Escherichia coli JW2778 ΔygdD
[51] = system: Escherichia coli HB101
[52] = system: Pseudomonas aeruginosa ATCC 27853

MIC [1]: 0.382 µM (≈ 0.998 µg/mL)
MIC [2]: 0.0956 µM (≈ 0.25 µg/mL)
MIC [3]: 0.191 µM (≈ 0.499 µg/mL)
MIC [4]: 0.765 µM (≈ 2 µg/mL)
MIC [5]: 0.0956 µM (≈ 0.25 µg/mL)
MIC [6]: 0.0956 µM (≈ 0.25 µg/mL)
MIC [7]: 0.382 µM (≈ 0.998 µg/mL)
MIC [8]: 0.382 µM (≈ 0.998 µg/mL)
MIC [9]: 0.382 µM (≈ 0.998 µg/mL)
MIC [10]: 0.382 µM (≈ 0.998 µg/mL)
MIC [11]: 0.191 µM (≈ 0.499 µg/mL)
MIC [12]: 0.191 µM (≈ 0.499 µg/mL)
MIC [13]: 0.0956 µM (≈ 0.25 µg/mL)
SMILES: CC(C)[C@@H]1NC(=O)[C@H](CCCN=C(N)N)NC(=O)[C@H](Cc2ccccc2)NC(=O)[C@@H](NC(=O)[C@H](Cc2c[nH]c3ccccc23)NC(=O)[C@H](CCCN=C(N)N)NC(=O)[C@@H](N)CCCN=C(N)N)CSSC[C@@H](C(=O)N[C@@H](CCCN=C(N)N)C(N)=O)NC(=O)[C@H](CCCCN)NC(=O)[C@H](CCCN=C(N)N)NC(=O)[C@H](Cc2ccc(O)cc2)NC(=O)[C@@H]2CSSC[C@H](NC1=O)C(=O)N[C@@H](Cc1ccc(O)cc1)C(=O)N[C@@H](CCCN=C(N)N)C(=O)NCC(=O)N[C@@H](CCCN=C(N)N)C(=O)N[C@@H](Cc1ccccc1)C(=O)N2 [RRWCFRVCYRGRFCYRKCR]

MIC [14]: 3.54 µM (≈ 14.2 µg/mL)
MIC [15]: 3.54 µM (≈ 14.2 µg/mL)
MIC [16]: 7.07 µM (≈ 28.3 µg/mL)
MIC [17]: 3.54 µM (≈ 14.2 µg/mL)
MIC [18]: 3.54 µM (≈ 14.2 µg/mL)
MIC [19]: 3.54 µM (≈ 14.2 µg/mL)
MIC [20]: 3.54 µM (≈ 14.2 µg/mL)
SMILES: CC[C@H](C)[C@@H]1NC(=O)[C@H](C)NC(=O)[C@@H](NC(=O)[C@@H](NC(=O)[C@@H](N)Cc2ccccc2)[C@@H](C)O)CSSC[C@@H]2NC(=O)[C@H](CCCCN)NC(=O)[C@H](CCCCN)NC(=O)[C@H](CCC(=O)O)NC(=O)CNC(=O)[C@H](CO)NC(=O)CNC(=O)[C@H](CCCCN)NC(=O)[C@@H]3CSSC[C@@H](C(=O)N[C@H](C(=O)N[C@@H](CCCCN)C(=O)N[C@H](C(=O)O)C(C)C)C(C)C)NC(=O)[C@H](C(C)C)NC(=O)[C@H](CC(N)=O)NC(=O)[C@H](Cc4ccccc4)NC(=O)[C@H](CCCCN)NC(=O)[C@H](CSSC[C@H](NC(=O)[C@H](CO)NC1=O)C(=O)N[C@@H](CC(=O)O)C(=O)N[C@@H]([C@@H](C)CC)C(=O)N[C@@H](CCCCN)C(=O)N[C@@H](C(C)C)C(=O)N[C@@H](CC(N)=O)C(=O)NCC(=O)N[C@@H](CCCCN)C(=O)N1CCC[C@H]1C(=O)N3)NC(=O)[C@H](CO)NC(=O)[C@H](Cc1c[nH]c3ccccc13)NC(=O)CNC(=O)CNC(=O)[C@H](CO)NC2=O [FTCAISCDIKVNGKPCKGSGEKKCSGGWSCKFNVCVKV]

MIC [21]: 12.5 µM (≈ 23.9 µg/mL)
MIC [22]: 3.12 µM (≈ 5.97 µg/mL)
MIC [23]: 1.56 µM (≈ 2.98 µg/mL)
MIC [24]: 0.78 µM (≈ 1.49 µg/mL)
MIC [25]: 12.5 µM (≈ 23.9 µg/mL)
MIC [26]: 6.25 µM (≈ 11.9 µg/mL)
SMILES: CC[C@H](C)[C@H](NC(=O)[C@H](CCCCN)NC(=O)[C@H](CCCCN)NC(=O)[C@H](Cc1ccccc1)NC(=O)[C@H](CC(C)C)NC(=O)[C@H](CCCCN)NC(=O)[C@H](Cc1c[nH]c2ccccc12)NC(=O)[C@@H](N)CCCCN)C(=O)N1CCC[C@H]1C(=O)N[C@@H](Cc1cnc[nH]1)C(=O)N[C@@H](CC(C)C)C(=O)N[C@@H](C)C(=O)N[C@@H](CCCCN)C(=O)N[C@@H](CCCCN)C(=O)N[C@@H](Cc1ccccc1)C(N)=O [KWKLFKKIPHLAKKF]

MIC [1]: > 128 µM
MIC [27]: 8 µM (≈ 16.6 µg/mL)
MIC [28]: 0.06 µM (≈ 0.125 µg/mL)
MIC [29]: 0.06 µM (≈ 0.125 µg/mL)
MIC [30]: 4 µM (≈ 8.31 µg/mL)
MIC [31]: 90.5 µM (≈ 188 µg/mL)
MIC [32]: 0.12 µM (≈ 0.249 µg/mL)
MIC [33]: > 64 µM
MIC [34]: 32 µM (≈ 66.4 µg/mL)
MIC [35]: 8 µM (≈ 16.6 µg/mL)
MIC [36]: 2 µM (≈ 4.15 µg/mL)
MIC [37]: 0.12 µM (≈ 0.249 µg/mL)
MIC [38]: 1 µM (≈ 2.08 µg/mL)
MIC [39]: 1 µM (≈ 2.08 µg/mL)
MIC [40]: 4 µM (≈ 8.31 µg/mL)
MIC [41]: 1 µM (≈ 2.08 µg/mL)
MIC [42]: 0.06 µM (≈ 0.125 µg/mL)
MIC [43]: 1 µM (≈ 2.08 µg/mL)
MIC [44]: 5.66 µM (≈ 11.7 µg/mL)
MIC [45]: ≥ 128 µM
MIC [46]: 0.12 µM (≈ 0.249 µg/mL)
MIC [47]: 0.06 µM (≈ 0.125 µg/mL)
MIC [48]: ≥ 64 µM
MIC [49]: 0.06 µM (≈ 0.125 µg/mL)
MIC [50]: 0.083 µM (≈ 0.172 µg/mL)
MIC [12]: > 64 µM
MIC [51]: 0.5 µM (≈ 1.04 µg/mL)
MIC [52]: > 64 µM
SMILES: CC[C@H](C)[C@H](NC(=O)[C@H](CCCN=C(N)N)NC(=O)[C@@H](N)CCCN=C(N)N)C(=O)N[C@@H](CCCN=C(N)N)C(=O)N1CCC[C@H]1C(=O)N[C@@H](CCCN=C(N)N)C(=O)N1CCC[C@H]1C(=O)N1CCC[C@H]1C(=O)N[C@@H](CCCN=C(N)N)C(=O)N[C@@H](CC(C)C)C(=O)N1CCC[C@H]1C(=O)N[C@@H](CCCN=C(N)N)C(=O)N1CCC[C@H]1C(=O)N[C@@H](CCCN=C(N)N)C(=O)N1CCC[C@H]1C(=O)N[C@@H](CCCN=C(N)N)C(=O)O [RRIRPRPPRLPRPRPR]
